Results published in paper PMC9466626, “Discovery of new 1H-pyrazolo[3,4-d]pyrimidine derivatives as anticancer agents targeting EGFR^WT and EGFR^T790M” (Journal of Enzyme Inhibition and Medicinal Chemistry, 2022).
Where two headings read alike, the source gives them in different places.

Key:
EGFR^T790M = biological target: T1, EGFR^T790M (Homo sapiens, UniProt P00533, T790M); experiment: EGFR^T790M kinase inhibitory assay (HTRF); format: biochemical
T1 construct: purchased Sigma
Protocol: (§1) In vitro EGFR inhibitory activity was assessed using a Homogeneous time-resolved fluorescence (HTRF) assay[56] as described in Supplementary data.
(§2) 4.1.1. EGFRWT and EGFRT790M kinase inhibitory assay […]
(§3) against four cancer cell lines were further examined for their inhibitory activities against both […]
(§4) Homogeneous time resolved fluorescence (HTRF) assay was applied in this test. EGFRWT, EGFRT790M (Sigma). firstly, the EGFRWT and/or EGFRT790M and their substrates were incubated with the tested compounds in enzymatic buffer for 5 min. […]
(§5) the enzymatic reaction. The assay was conducted for 30 min at room temperature. The reaction was stopped by addition of detection reagents which contain EDTA. The detection step continued […]
(§6) experiments were performed for each concentration. […]

EGFR^WT = biological target: T2, EGFR^WT (Homo sapiens, UniProt P00533); experiment: EGFR^WT kinase inhibitory assay (HTRF); format: biochemical
T2 construct: purchased Sigma
T2 sequence (P00533 25-1210): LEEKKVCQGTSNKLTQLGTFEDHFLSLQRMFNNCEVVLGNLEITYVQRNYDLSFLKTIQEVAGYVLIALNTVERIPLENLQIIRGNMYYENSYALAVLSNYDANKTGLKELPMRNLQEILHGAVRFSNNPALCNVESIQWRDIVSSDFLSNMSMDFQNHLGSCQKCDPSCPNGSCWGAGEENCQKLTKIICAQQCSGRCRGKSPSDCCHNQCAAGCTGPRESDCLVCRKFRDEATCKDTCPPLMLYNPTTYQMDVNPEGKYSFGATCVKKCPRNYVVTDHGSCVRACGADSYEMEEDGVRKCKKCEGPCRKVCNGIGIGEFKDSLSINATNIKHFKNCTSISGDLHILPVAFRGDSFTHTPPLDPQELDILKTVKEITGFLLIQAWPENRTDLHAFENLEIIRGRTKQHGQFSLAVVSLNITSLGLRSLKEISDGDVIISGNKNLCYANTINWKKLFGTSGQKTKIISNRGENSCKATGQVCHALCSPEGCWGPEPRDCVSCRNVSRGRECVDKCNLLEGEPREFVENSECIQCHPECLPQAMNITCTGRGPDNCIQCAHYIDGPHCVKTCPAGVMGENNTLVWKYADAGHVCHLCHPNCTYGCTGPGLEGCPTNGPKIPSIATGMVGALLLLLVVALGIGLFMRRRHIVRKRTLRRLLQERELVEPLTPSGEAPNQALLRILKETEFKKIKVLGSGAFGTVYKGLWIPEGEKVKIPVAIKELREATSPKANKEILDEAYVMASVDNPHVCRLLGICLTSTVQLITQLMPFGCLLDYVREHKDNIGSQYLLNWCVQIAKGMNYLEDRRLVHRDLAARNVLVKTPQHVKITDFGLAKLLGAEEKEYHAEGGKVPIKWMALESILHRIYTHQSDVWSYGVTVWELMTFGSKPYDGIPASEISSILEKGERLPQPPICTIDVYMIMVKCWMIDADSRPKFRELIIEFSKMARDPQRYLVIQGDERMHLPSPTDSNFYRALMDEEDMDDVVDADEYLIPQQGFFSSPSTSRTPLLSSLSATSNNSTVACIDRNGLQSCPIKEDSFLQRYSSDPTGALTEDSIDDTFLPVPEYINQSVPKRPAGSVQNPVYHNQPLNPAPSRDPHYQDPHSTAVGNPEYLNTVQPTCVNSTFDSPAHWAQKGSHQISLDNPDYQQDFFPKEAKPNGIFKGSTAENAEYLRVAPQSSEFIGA
Protocol: as §1, §2, §3, §4, §5, §6

[1] = supplement graph, axis Log (nM)

T1 sequence (P00533 25-1210 T790M): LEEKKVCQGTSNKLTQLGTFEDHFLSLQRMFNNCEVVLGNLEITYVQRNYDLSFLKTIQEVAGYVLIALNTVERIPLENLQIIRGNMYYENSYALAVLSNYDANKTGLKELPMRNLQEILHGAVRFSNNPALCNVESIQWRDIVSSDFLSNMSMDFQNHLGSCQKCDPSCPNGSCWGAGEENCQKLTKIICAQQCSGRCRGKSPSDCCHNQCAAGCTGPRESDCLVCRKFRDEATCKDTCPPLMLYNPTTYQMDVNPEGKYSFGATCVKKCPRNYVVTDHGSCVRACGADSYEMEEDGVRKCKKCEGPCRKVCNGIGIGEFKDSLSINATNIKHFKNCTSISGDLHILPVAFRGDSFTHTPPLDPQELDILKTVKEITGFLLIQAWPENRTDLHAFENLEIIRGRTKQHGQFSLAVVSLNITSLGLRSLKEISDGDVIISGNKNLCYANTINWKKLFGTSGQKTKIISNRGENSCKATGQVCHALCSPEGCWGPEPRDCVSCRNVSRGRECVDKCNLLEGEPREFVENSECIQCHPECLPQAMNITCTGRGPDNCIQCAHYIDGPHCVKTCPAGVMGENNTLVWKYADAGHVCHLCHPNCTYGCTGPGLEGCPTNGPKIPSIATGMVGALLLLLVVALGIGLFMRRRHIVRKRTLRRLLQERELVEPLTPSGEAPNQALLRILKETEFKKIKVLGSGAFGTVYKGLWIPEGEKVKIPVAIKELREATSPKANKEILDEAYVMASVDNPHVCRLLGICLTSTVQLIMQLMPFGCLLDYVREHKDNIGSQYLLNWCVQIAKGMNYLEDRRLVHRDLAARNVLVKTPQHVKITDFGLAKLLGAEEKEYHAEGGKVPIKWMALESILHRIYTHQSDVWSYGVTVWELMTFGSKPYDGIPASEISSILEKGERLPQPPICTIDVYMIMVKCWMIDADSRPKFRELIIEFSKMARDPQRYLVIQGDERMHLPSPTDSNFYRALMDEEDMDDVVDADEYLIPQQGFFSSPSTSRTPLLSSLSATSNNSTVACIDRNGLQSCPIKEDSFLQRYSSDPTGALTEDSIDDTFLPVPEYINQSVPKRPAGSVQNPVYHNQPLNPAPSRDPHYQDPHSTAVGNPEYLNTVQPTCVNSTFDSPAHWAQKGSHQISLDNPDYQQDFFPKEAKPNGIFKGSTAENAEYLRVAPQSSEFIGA

CC(=NNc1nc(Nc2ccccc2)nc2c1cnn2-c1ccccc1)c1ccc(Cl)cc1 [Compound 12b, 4–(2-(1–(4-Chlorophenyl)ethylidene)hydrazinyl)-N,1-diphenyl-1H-pyrazolo[3,4-d]pyrimidin-6-amine]
fold more potent than erlotinib against EGFR^T790M (EGFR^T790M): 2.4 fold | IC50 (EGFR^T790M; HTRF, mean of three experiments, read-out: EGFR^T790M IC50): 236 nM | HillSlope (best-fit value), EGFRT790M inhibition (EGFR^T790M; supplement graph): -0.3418 | LogIC50 (best-fit value), EGFRT790M inhibition (EGFR^T790M; [1]): 2.372 | IC50 (EGFR^T790M; supplement graph, axis Log (nM), read-out: IC50 (best-fit value of graph), EGFRT790M inhibition): 235 nM | IC50 (EGFR^WT; HTRF, mean of three experiments, read-out: EGFR^WT IC50): 16 nM | HillSlope (best-fit value), EGFR inhibition (EGFR^WT; supplement graph): -0.3524 | LogIC50 (best-fit value), EGFR inhibition (EGFR^WT; [1]): 1.193 | IC50 (EGFR^WT; supplement graph, axis Log (nM), read-out: IC50 (best-fit value of graph), EGFR inhibition): 15.6 nM
